Reference: patent US20130150376A1, “Novel Sultam Compounds” (PFIZER INC., priority 2010, published 2013)
Counter-ions that a name gives are not always drawn. Like-named read-outs stand apart in the source and are kept apart here.

Molecular target: T1, BACE1 enzyme (soluble, truncated BACE enzyme, BACE1deltaTM96His) (Homo sapiens, UniProt P56817)
T1 construct: soluble, truncated BACE enzyme (BACE1deltaTM96His); His; made in house
Experiment: BACE1 Fluorescent Polarization (FP) Assay
Assay type: biochemical
Details: geometric mean of 2-4 IC50 determinations unless footnoted (^2: 5-6 determinations; ^4: single determination)
Text: BACE1 Fluorescent Polarization (FP) Assay
The fluorescently tagged synthetic substrate, Biotin-GLTNIKTEEISEISŶEVEFR-C[oregon green]KK-OH can be efficiently cleaved by the beta-secretase enzyme and is therefore useful to assay beta-secretase activity in the presence or absence of inhibitory compounds. The his tagged BACE1 enzyme was affinity purified material from conditioned media of CHO-K1 cells that had been transfected to express soluble, truncated BACE enzyme (BACE1deltaTM96His). Compounds were incubated in a ½ log dose response (from a top concentration of 100 μM) with BACE1 enzyme (0.1 nM final) and the biotinylated fluorescent peptide substrate (150 nM final) in assay buffer containing 100 mM sodium acetate, pH 4.5 (brought to pH with acetic acid), and 0.001% Tween-20. Total reaction volumes of 30 μL were carried out in 384-well black plates (Thermo Scientific 4318). Plates were covered and incubated for 3 hours at 37° C. The reactions were then stopped by addition of 30 μL of 1.5 μM Streptavidin (Pierce, 21125). After a 10 minute incubation at room temperature, plates were read on a PerkinElmer Envision for fluorescence polarization (Ex485 nm/Em530 nm). The activity of the beta-secretase enzyme is detected by changes in the fluorescence polarization (Δ mP) that occur when the substrate is cleaved by the enzyme.

[1] = 8-point curve, read-out: BACE activity, 8-point curve, IC50
[2] = 11-point curve, read-out: BACE activity, 11-point curve, IC50

T1 sequence (P56817 46-457): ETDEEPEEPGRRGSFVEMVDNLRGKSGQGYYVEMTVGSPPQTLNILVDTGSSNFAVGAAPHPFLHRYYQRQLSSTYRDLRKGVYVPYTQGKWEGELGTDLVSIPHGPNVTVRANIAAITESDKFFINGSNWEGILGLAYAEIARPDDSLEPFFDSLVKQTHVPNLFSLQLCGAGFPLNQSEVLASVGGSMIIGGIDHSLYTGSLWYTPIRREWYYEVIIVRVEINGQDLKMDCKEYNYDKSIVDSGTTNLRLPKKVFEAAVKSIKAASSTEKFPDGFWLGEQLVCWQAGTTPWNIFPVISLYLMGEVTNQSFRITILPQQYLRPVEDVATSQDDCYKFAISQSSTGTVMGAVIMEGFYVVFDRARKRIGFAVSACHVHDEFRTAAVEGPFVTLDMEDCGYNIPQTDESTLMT

COc1ccc2[nH]c(CN3CC[C@]4(CCS(=O)(=O)N4c4cccc(F)c4)C[C@@H]3C)cc2c1 [Example 53, (5R,7S)-1-(3-fluorophenyl)-8-[(5-methoxy-1H-indol-2-yl)methyl]-7-methyl-2-thia-1,8-diazaspiro[4.5]decane 2,2-dioxide]
IC50 [1]: 2.29 µM
IC50 [2]: 4.46 µM

Cc1ccccc1-c1cccc(CN2CC[C@]3(C=CS(=O)(=O)N3c3cccc(F)c3)C[C@@H]2C)c1 [Example 54, (5R,7S)-1-(3-fluorophenyl)-7-methyl-8-[(2′-methylbiphenyl-3-yl)methyl]-2-thia-1,8-diazaspiro[4.5]dec-3-ene 2,2-dioxide]
IC50 [1]: 0.0533 µM
IC50 [2]: 0.137 µM

Cc1ccncc1-c1cccc(CN2CC[C@]3(CCS(=O)(=O)N3c3cccc(F)c3)C[C@@H]2C)c1 [Example 55, (5R,7S)-1-(3-fluorophenyl)-7-methyl-8-[3-(4-methy|pyridin-3-yl)benzyl]-2-thia-1,8-diazaspiro[4.5]decane 2,2-dioxide, hydrochloride salt]
IC50 [1]: 0.392 µM
IC50 [2]: 1.02 µM

C[C@H]1C[C@]2(CCN1Cc1ncoc1-c1cccs1)CCS(=O)(=O)N2c1cccc(F)c1 [Example 56, (5R,7S)-1-(3-fluorophenyl)-7-methyl-8-{[5-(2-thienyl)-1,3-oxazol-4-yl]methyl}-2-thia-1,8-diazaspiro[4.5]decane 2,2-dioxide, hydrochloride salt]
IC50 [2]: 15.4 µM

Cc1cncc(-c2ocnc2CN2CC[C@]3(CCS(=O)(=O)N3c3cccc(F)c3)C[C@@H]2C)c1 [Example 57, (5R,7S)-1-(3-fluorophenyl)-7-methyl-8-{[5-(5-methylpyridin-3-yl)-1,3-oxazol-4-yl]methyl}-2-thia-1,8-diazaspiro[4.5]decane 2,2-dioxide, hydrochloride salt]
IC50 [2]: 4.08 µM

Cc1ccsc1-c1ocnc1CN1CC[C@]2(CCS(=O)(=O)N2c2cccc(F)c2)C[C@@H]1C [Example 58, (5R,7S)-1-(3-fluorophenyl)-7-methyl-8-{[5-(3-methyl-2-thienyl)-1,3-oxazol-4-yl]methyl}-2-thia-1,8-diazaspiro[4.5]decane 2,2-dioxide, hydrochloride salt]
IC50 [2]: 6.53 µM

Cc1ncsc1-c1ocnc1CN1CC[C@]2(CCS(=O)(=O)N2c2cccc(F)c2)C[C@@H]1C [Example 59, (5R,7S)-1-(3-fluorophenyl)-7-methyl-8-{[5-(4-methyl-1,3-thiazol-5-yl)-1,3-oxazol-4-yt]methyl}-2-thia-1,8-diazaspiro[4.5]decane 2,2-dioxide, hydrochloride salt]
IC50 [2]: 8.82 µM

C[C@H]1C[C@]2(CCN1Cc1ncoc1-c1cncs1)CCS(=O)(=O)N2c1cccc(F)c1 [Example 60, (5R,7S)-1-(3-fluorophenyl)-7-methyl-8-{[5-(1,3-thiazol-5-yl)-1,3-oxazol-4-yl]methyl}-2-thia-1,8-diazaspiro[4.5]decane 2,2-dioxide, hydrochloride salt]
IC50 [2]: 6.54 µM

Cc1ccccc1-c1cc(CN2CC[C@]3(CCS(=O)(=O)N3c3cccc(F)c3)C[C@@H]2C)ccc1O [Example 62, 5-{[(5R,7S)-1-(3-fluorophenyl)-7-methyl-2,2-dioxido-2-thia-1,8-diazaspiro[4.5]dec-8-yl]methyl-2′-methylbiphenyl-2-ol, hydrochloride salt]
IC50 [1]: 0.019 µM
IC50 [2]: 0.0333 µM

COC1=CS(=O)(=O)N(c2cccc(F)c2)[C@@]12CCN(Cc1cccc(OC(C)C)c1)[C@@H](C)C2 [Example 63, (5R,7S)-1-(3-fluorophenyl)-8-(3-isopropoxybenzyl)-4-methoxy-7-methyl-2-thia-1,8-diazaspiro[4.5]dec-3-ene 2,2-dioxide]
IC50 [1]: 5.82 µM

CC(C)Oc1cccc(CN2CC[C@@]3(C[C@@H]2C)C(=O)C(C)(C)S(=O)(=O)N3c2cccc(F)c2)c1 [Example 64, (5R,7S)-1-(3-fluorophenyl)-8-(3-isopropoxybenzyl)-3,3,7-trimethyl-2-thia-1,8-diazaspiro[4.5]decan-4-one 2,2-dioxide, hydrochloride salt]
IC50 [2]: 25.7 µM
